Assay results reported in patent US20230131402A1, “SPIRO-LACTAM NMDA RECEPTOR MODULATORS AND USES THEREOF” (Aptinyx Inc., priority 2016, published 2023).
Read-outs that look alike come from different tables or passages of the source.

How the values were obtained:
NMDAR2A = target: T1, NMDAR2A (Homo sapiens, UniProt Q12879); test: [3H]MK-801 binding, NMDAR2A expressing HEK cell membranes; type: biochemical; conditions: 50 μM glutamate; for Emax: read-out: NMDAR2A A: % maximal [3H]MK-801 binding relative to 1 mM glycine; for EC50: read-out: NMDAR2A B: log EC50 (converted)
T1 construct: expressed in transfected cells; host or cells: HEK cells (membrane extract)
Procedure: (§1) Assays were conducted as described by Moskal et al., “GLYX-13: a monoclonal antibody-derived peptide that acts as an N-methyl-D-aspartate receptor modulator,” Neuropharmacology, 49, 1077-87, 2005. These studies were designed to determine if the test compounds act to facilitate NMDAR activation in NMDAR2A, NMDAR2B, NMDAR2C or NMDAR2D expressing HEK cell membranes as measured by increases in [^3H]MK-801 binding.
(§2) In the assay, 300 μg of NMDAR expressing HEK cell membrane extract protein was preincubated for 15 minutes at 25° C. in the presence of saturating concentrations of glutamate (50 μM) and varying concentrations of test compound (1×10^−15M−1×10^−7M), or 1 mM glycine. Following the addition of 0.3 μCi of [^3H]MK-801 (22.5 Ci/mmol), reactions were again incubated for 15 minutes at 25° C. (nonequilibrium conditions). Bound and free [^3H]MK-801 were separated via rapid filtration using a Brandel apparatus.
(§3) In analyzing the data, the DPM (disintegrations per minute) of [^3H]MK-801 remaining on the filter were measured for each concentration of test compound or for 1 mM glycine. The DPM values for each concentration of a ligand (N=2) were averaged. The baseline value was determined from the best fit curve of the DPM values modeled using the GraphPad program and the log(agonist) vs. response(three parameters) algorithm was then subtracted from all points in the dataset. The % maximal [^3H]MK-801 binding was then calculated relative to that of 1 mM glycine: all baseline subtracted DPM values were divided by the average value for 1 mM glycine. The EC50 and % maximal activity were then obtained from the best fit curve of the % maximal [^3H]MK-801 binding data modelled using the GraphPad program and the log(agonist) vs. response(three parameters) algorithm.
(§4) The tables below summarize the results for the wild type NMDAR agonists NMDAR2A, NMDAR2B, NMDAR2C, and NMDAR2D, and whether the compound is not an agonist (−), is an agonist (+), or is a strong agonist (++), where column A is based on the % maximal [^3H]MK-801 binding relative to 1 mM glycine (−=0; <100%=+; and >100%=++); and column B is based on log EC50 values (0=−; ≥1×10^−9M (e.g., −8)=+; and <1×10^−9M (e.g., −10)=++).

NMDAR2B = target: T2, NMDAR2B (Homo sapiens, UniProt Q13224); test: [3H]MK-801 binding, NMDAR2B expressing HEK cell membranes; type: biochemical; conditions: 50 μM glutamate; for EC50: read-out: NMDAR2B B: log EC50 (converted); for Emax: read-out: NMDAR2B A: % maximal [3H]MK-801 binding relative to 1 mM glycine
T2 construct: expressed in transfected cells; host or cells: HEK cells (membrane extract)
Procedure: as §1, §2, §3, §4

[1] = test system: positive (hedonic) 50-kHz ultrasonic vocalizations (USVs); test: Positive emotional learning (PEL) test; type: in vivo, rats; conditions: rat, PO, 1 h after administration
Procedure: Experiments were conducted as described in Burgdorf et al., “The effect of selective breeding for differential rates of 50-kHz ultrasonic vocalizations on emotional behavior in rats,” Devel. Psychobiol., 51:34-46 (2009). Rat 50-kHz ultrasonic vocalization (hedonic USVs) is a validated model for the study of positive affective state and is best elicited by rough-and-tumble play.
The PEL assay measures the acquisition of positive (hedonic) 50-kHz ultrasonic vocalizations (USVs) to a social stimulus, heterospecific rough and tumble play stimulation. Heterospecific rough-and-tumble play stimulation was administered by the experimenter's right hand. One hour after administration of test compound or vehicle negative control (0.5% sodium carboxymethyl cellulose in 0.9% sterile saline vehicle), animals received 3 min of heterospecific rough-and-tumble play that consisted of alternating 15 sec blocks of heterospecific play and 15 sec of no-stimulation. High frequency ultrasonic vocalizations (USVs) were recorded and analyzed by sonogram with Avasoft SASlab Pro (Germany) as previously described by Burgdorf et al., “Positive emotional learning is regulated in the medial prefrontal cortex by GluN2B-containing NMDA receptors,” Neuroscience, 192:515-523 (2011). Frequency modulated 50-kHz US V s that occurred during each of the no-stimulation periods were quantified to measure PEL. Animals were not habituated to play stimulation before testing. Positive emotional learning was measured during the conditioned stimulus (CS) trials preceding the tickle unconditioned stimulus (UCS) trials. Animals received 15 second trials consisting of 6 CS and 6 UCS trials each (3 min total).
The table below summarizes the findings. As each experiment includes its own vehicle group, an example (typical) vehicle score is shown. Max effect (mean number of 50 kHz USVs per 15 seconds) is reported as ∧: <6.0; *: 6.0-7.6; **: 7.7-10; ***: 10.1-20.

NMDAR2C = target: T3, NMDAR2C (Homo sapiens, UniProt Q14957); test: [3H]MK-801 binding, NMDAR2C expressing HEK cell membranes; type: biochemical; conditions: 50 μM glutamate; for EC50: read-out: NMDAR2C B: log EC50 (converted)
T3 construct: expressed in transfected cells; host or cells: HEK cells (membrane extract)
Procedure: as §1, §2, §3, §4

[2] = Oral pharmacokinetics (plasma, brain, CSF); conditions: rat, per os, 10 mg/kg
Procedure: Plasma, brain, and CSF samples were analyzed at various time points over a 24 hour period.

IV pharmacokinetics = type: in vivo, Sprague Dawley rats; conditions: rat, 2 mg/kg, normal saline (compounds marked * in 1% NMP and 99% normal saline); for Vd: read-out: Vss
From the text: The table below summarizes the results of the IV pharmacokinetics.

NMDAR2D [3] = target: T4, NMDAR2D (Homo sapiens, UniProt O15399); test: [3H]MK-801 binding, NMDAR2D expressing HEK cell membranes; type: biochemical; conditions: 50 μM glutamate; for EC50: read-out: NMDAR2D B: log EC50 (converted)
T4 construct: expressed in transfected cells; host or cells: HEK cells (membrane extract)
Procedure: as §1, §2, §3, §4

NMDAR2D [4] = target: T5, NMDAR2D (Homo sapiens, UniProt O15399+Q05586); test: as above; type: biochemical; conditions: 50 μM glutamate, read-out: NMDAR2D B: log EC50 (converted)
T5 construct: expressed in transfected cells; host or cells: HEK cells (membrane extract)
Procedure: as §1, §2, §3, §4

[5] = normal saline (compounds marked * in 1% NMP and 99% normal saline)
[6] = plasma, normal saline (compounds marked * in 1% NMP and 99% normal saline)
[7] = Sprague Dawley, plasma, po, Tmax, normal saline (compounds marked * in 1% NMP and 99% normal saline)
[8] = Sprague Dawley, in vivo, iv, read-out: C0

T4 sequence (O15399 28-1336, species assumed, other chains not shown): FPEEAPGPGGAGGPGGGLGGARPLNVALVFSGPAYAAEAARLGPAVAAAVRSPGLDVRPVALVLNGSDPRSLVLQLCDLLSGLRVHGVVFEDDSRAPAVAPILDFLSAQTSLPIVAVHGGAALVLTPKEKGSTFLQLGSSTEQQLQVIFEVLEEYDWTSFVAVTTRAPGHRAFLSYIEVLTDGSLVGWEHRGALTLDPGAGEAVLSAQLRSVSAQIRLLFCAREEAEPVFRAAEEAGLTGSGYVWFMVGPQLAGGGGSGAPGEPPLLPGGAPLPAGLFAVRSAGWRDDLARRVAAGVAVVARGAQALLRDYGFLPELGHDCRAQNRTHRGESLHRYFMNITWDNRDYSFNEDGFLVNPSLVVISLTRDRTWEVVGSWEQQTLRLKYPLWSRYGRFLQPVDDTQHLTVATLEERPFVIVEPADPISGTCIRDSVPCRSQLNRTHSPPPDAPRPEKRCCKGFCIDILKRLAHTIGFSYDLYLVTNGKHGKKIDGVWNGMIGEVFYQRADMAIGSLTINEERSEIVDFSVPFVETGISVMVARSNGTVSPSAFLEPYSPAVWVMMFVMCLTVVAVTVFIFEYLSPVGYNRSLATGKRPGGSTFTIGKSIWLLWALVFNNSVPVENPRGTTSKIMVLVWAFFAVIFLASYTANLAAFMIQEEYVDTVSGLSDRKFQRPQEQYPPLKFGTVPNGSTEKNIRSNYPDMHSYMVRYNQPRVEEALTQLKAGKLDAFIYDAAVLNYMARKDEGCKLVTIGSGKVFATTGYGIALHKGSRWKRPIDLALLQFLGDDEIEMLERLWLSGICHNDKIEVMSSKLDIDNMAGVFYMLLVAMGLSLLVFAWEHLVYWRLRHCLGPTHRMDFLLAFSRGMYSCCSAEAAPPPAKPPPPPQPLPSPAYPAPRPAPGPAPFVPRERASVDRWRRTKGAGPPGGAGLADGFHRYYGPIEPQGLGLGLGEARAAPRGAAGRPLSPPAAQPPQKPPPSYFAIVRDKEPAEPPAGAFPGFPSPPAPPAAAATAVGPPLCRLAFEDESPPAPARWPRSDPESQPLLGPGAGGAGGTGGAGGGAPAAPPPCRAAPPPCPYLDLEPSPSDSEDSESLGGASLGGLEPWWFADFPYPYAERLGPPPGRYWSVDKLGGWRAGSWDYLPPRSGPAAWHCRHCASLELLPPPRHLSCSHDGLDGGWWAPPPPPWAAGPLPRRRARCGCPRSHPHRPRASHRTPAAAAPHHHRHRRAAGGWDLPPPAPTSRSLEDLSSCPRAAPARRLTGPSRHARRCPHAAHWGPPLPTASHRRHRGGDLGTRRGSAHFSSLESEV
T3 sequence (Q14957 20-1233, species assumed, other chains not shown): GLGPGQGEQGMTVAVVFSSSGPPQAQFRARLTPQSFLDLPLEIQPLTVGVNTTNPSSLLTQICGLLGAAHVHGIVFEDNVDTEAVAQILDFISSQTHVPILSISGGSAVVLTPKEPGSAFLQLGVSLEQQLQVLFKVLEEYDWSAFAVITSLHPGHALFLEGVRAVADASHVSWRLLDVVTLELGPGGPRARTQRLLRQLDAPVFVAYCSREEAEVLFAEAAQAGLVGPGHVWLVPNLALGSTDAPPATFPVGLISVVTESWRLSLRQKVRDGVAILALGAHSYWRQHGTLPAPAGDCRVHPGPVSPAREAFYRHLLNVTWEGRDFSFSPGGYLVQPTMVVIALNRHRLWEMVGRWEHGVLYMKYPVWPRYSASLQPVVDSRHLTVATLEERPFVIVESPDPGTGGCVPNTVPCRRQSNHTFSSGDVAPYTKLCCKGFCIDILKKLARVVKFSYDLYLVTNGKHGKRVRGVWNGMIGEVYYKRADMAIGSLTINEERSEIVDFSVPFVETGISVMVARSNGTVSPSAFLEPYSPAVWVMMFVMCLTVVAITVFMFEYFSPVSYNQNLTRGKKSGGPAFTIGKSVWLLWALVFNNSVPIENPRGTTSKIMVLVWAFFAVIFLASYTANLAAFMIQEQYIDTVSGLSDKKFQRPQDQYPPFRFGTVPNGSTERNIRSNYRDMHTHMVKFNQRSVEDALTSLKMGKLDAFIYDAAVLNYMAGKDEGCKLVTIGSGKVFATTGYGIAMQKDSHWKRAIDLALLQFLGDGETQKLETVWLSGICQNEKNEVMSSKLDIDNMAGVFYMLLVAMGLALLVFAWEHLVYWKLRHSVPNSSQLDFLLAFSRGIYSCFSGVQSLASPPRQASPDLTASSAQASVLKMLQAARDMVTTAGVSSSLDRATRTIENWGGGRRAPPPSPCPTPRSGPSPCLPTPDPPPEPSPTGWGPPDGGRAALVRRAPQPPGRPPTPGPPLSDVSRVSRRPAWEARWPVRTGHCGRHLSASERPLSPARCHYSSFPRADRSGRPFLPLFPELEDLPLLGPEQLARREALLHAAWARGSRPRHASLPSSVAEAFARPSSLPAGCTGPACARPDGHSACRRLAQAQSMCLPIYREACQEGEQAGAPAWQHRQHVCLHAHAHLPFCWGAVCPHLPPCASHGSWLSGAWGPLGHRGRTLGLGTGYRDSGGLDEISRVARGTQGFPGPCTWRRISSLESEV
T2 sequence (Q13224 27-1484, species assumed, other chains not shown): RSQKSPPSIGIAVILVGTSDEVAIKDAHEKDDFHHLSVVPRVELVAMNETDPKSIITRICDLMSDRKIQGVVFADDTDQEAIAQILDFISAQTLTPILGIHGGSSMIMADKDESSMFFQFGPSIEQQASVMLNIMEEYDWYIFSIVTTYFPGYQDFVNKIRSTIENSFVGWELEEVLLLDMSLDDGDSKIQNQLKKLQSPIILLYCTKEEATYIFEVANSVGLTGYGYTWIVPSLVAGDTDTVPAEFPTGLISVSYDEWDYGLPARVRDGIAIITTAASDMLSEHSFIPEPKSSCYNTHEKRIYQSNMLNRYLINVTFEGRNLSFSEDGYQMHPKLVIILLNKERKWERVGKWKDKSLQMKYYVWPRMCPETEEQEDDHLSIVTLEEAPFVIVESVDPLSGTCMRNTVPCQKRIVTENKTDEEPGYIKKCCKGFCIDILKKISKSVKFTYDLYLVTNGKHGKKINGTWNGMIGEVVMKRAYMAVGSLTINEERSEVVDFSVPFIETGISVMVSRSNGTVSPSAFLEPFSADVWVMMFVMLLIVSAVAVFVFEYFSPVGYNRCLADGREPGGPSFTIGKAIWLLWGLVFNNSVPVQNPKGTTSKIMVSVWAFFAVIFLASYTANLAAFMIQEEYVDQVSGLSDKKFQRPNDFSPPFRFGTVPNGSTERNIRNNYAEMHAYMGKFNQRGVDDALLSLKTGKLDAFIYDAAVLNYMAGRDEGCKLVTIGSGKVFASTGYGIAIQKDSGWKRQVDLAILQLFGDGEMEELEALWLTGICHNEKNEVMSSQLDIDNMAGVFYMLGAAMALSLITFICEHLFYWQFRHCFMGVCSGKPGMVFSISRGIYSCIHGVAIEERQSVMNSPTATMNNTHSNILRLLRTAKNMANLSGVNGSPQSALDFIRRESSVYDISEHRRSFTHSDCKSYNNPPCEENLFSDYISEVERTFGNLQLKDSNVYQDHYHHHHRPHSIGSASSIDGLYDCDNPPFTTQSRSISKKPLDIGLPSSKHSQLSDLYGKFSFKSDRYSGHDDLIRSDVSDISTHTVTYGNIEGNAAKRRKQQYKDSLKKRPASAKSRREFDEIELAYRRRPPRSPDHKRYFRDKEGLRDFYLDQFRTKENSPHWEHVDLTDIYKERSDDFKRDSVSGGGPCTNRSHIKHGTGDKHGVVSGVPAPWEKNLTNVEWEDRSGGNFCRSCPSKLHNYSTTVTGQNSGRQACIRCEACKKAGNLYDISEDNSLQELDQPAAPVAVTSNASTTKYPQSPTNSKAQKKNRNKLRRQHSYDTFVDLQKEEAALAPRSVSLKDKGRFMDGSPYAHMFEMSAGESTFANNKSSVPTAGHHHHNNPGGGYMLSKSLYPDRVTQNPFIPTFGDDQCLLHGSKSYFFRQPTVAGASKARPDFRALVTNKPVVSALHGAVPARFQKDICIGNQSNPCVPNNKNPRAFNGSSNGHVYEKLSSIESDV
T5 sequence (O15399 28-1336, species assumed, other chains not shown): as the sequence (O15399 28-1336, species assumed, other chains not shown) above

Row | EC50 (NMDAR2B) [nM] | CSF Cmax [2] [ng/mL] | Emax (NMDAR2A) [%] | Emax (NMDAR2B) [%] | SMILES | NMDAR2A A: % maximal [3H]MK-801 binding relative to 1 mM glycine (NMDAR2A) | NMDAR2B A: % maximal [3H]MK-801 binding relative to 1 mM glycine (NMDAR2B) | NMDAR2C A: % maximal [3H]MK-801 binding relative to 1 mM glycine (NMDAR2C) | EC50 (NMDAR2C) [nM] | Cmax [2, 6] [ng/mL] | NMDAR2D A: % maximal [3H]MK-801 binding relative to 1 mM glycine (NMDAR2D [3]) | EC50 (NMDAR2A) [nM] | Max Effect (mean number of 50 kHz USVs per 15 seconds) ([1]; dose .1 mg/kg) | further results
1 | < 1 | – | – | – | CC(C)(C)OC(=O)N1CCN(C(=O)OC(C)(C)C)C2(CNC2=O)C1 (single isomer, unassigned) [EE-2, Di-Tert-Butyl 1-Oxo-2,5,8-Triazaspiro[3.5]Nonane-5,8-Dicarboxylate] | − (−=0) | + (<100%=+) | + (<100%=+) | < 1 | – | − (−=0) | – | – | –
2 | < 1 | 81.6 | < 100 | – | C[C@@H](O)[C@H](N)C(=O)N1CCNC2(CNC2=O)C1 (single isomer, unassigned) [EK-2, 8-(L-Threonyl)-2,5,8-Triazaspiro[3.5]Nonan-1-One] | – | + (<100%=+) | – | – | 1910.5 | – | > 1 | * (*: 6.0-7.6) | Tmax [2, 5]: 60 min
3 | < 1 | 56.9 | 0 | < 100 | C[C@@H](O)[C@H](N)C(=O)N1CCN(Cc2ccccc2)C2(CNC2=O)C1 (single isomer, unassigned) [EL-1, 8-(L-Threonyl)-5-Benzyl-2,5,8-Triazaspiro[3.5]Nonan-1-One] | – | – | – | – | – | – | – | *** (***: 10.1-20) | bioavailability ([2]; Sprague Dawley, plasma, po, % F): 90%; AUC(0-t) ([2]; Sprague Dawley, plasma, po, AUClast, normal saline (compounds marked * in 1% NMP and 99% normal saline)): 19400 ng·h/mL; Cmax ([2]; Sprague Dawley, plasma, po, Cmax, normal saline (compounds marked * in 1% NMP and 99% normal saline)): 4980 ng/mL; Tmax [2, 7]: 30 min; Brain Cmax [2]: 143 ng/mL; AUC(0-t) (IV pharmacokinetics; Sprague Dawley, in vivo, iv): 4320 ng·h/mL; clearance (IV pharmacokinetics; Sprague Dawley, in vivo, iv): 7.35 mL/min/kg; half-life (IV pharmacokinetics; Sprague Dawley, in vivo, iv): 406 min; C0 (IV pharmacokinetics; [8]): 3250 ng/mL; Vd (IV pharmacokinetics; Sprague Dawley, in vivo, iv): 2.12 L/kg
4 | < 1 | – | < 100 | > 100 | C[C@@H](O)[C@H](N)C(=O)N1CCN(C(=O)OC(C)(C)C)CC12CNC2=O (stereo partly drawn) [EC-2, Tert-Butyl 5-(L-Threonyl)-1-Oxo-2,5,8-Triazaspiro[3.5]Nonane-8-Carboxylate] | – | – | – | – | – | – | > 1 | ** (**: 7.7-10) | –
5 | < 1 | – | – | – | CN1CCN(C(=O)OC(C)(C)C)CC12CN(CC(N)=O)C2=O (stereo not drawn) [ER-118] | − (−=0) | + (<100%=+) | − (−=0) | – | – | ++ (>100%=++) | – | – | EC50 (NMDAR2D [3]): < 1 nM

Continued, molecule first:

Row | SMILES | EC50 (NMDAR2B) [nM] | CSF Cmax [2] [ng/mL] | Emax (NMDAR2A) [%] | Emax (NMDAR2B) [%] | NMDAR2A A: % maximal [3H]MK-801 binding relative to 1 mM glycine (NMDAR2A) | NMDAR2B A: % maximal [3H]MK-801 binding relative to 1 mM glycine (NMDAR2B) | NMDAR2C A: % maximal [3H]MK-801 binding relative to 1 mM glycine (NMDAR2C) | EC50 (NMDAR2C) [nM] | Cmax [2, 6] [ng/mL] | NMDAR2D A: % maximal [3H]MK-801 binding relative to 1 mM glycine (NMDAR2D [3]) | EC50 (NMDAR2A) [nM] | Max Effect (mean number of 50 kHz USVs per 15 seconds) ([1]; dose .1 mg/kg) | further results
6 | O=C1NCC12CNCCN2Cc1ccccc1 (single isomer, unassigned) [ED-2, 5-Benzyl-2,5,8-Triazaspiro[3.5]Nonan-1-One] | < 1 | 178.3 | – | – | − (−=0) | + (<100%=+) | + (<100%=+) | < 1 | 1563.1 | + (<100%=+) | – | – | Max Effect (mean number of 50 kHz USVs per 15 seconds) ([1]; dose .001-1 mg/kg): *** (***: 10.1-20); % F [2]: 54%; Brain Cmax [2]: 478.5 ng/mL; AUClast [2, 5]: 2178.53 ng·h/mL; Tmax [2, 5]: 15 min; AUClast (IV pharmacokinetics): 806.5 ng·h/mL; C0 (IV pharmacokinetics): 1793.2 ng/mL; Cl (IV pharmacokinetics): 40.6 mL/min/kg; T1/2 (IV pharmacokinetics): 32.4 min; Vss (IV pharmacokinetics): 1.45 L/kg; EC50 (NMDAR2D [3]): < 1 nM
7 | CN1CCN(Cc2ccccc2)C2(CNC2=O)C1 (single isomer, unassigned) [EG-2, 5-Benzyl-8-Methyl-2,5,8-Triazaspiro[3.5]Nonan-1-One] | – | – | – | – | − (−=0) | − (−=0) | + (<100%=+) | < 1 | 3526.63 | + (<100%=+) | – | – | Tmax [2, 7]: 15 min; % F [2]: 100%; AUClast [2, 5]: 3082.39 ng·h/mL; AUC(0-t) (IV pharmacokinetics; Sprague Dawley, in vivo, iv): 400 ng·h/mL; clearance (IV pharmacokinetics; Sprague Dawley, in vivo, iv): 83.3 mL/min/kg; half-life (IV pharmacokinetics; Sprague Dawley, in vivo, iv): 28.8 min; C0 (IV pharmacokinetics; [8]): 1100 ng/mL; Vd (IV pharmacokinetics; Sprague Dawley, in vivo, iv): 1.87 L/kg; EC50 (NMDAR2D [4]): < 1 nM
8 | CN1CCNC2(CNC2=O)C1 (stereo not drawn) [EH-1, 8-Methyl-2,5,8-Triazaspiro[3.5]Nonan-1-One] | < 1 | – | < 100 | < 100 | – | – | − (−=0) | – | – | + (<100%=+) | < 1 | – | EC50 (NMDAR2D [4]): < 1 nM
9 | CN1CCNC2(CNC2=O)C1 (stereo not drawn) [EH-2, 8-Methyl-2,5,8-Triazaspiro[3.5]Nonan-1-One] | < 1 | – | – | – | + (<100%=+) | + (<100%=+) | − (−=0) | – | – | − (−=0) | < 1 | – | –
